Patent US20060148860A1, “Substituted p-phenyl carbamates” (Novo Nordisk A/S, priority 2003, published 2006)

These compounds were tested against T1, hormone sensitive lipase (HSL) (Homo sapiens, UniProt Q05469) (assay: 3190.1: percent inhibition of hormone sensitive lipase at 10 μM (fluorochrome-labeled triacylglyceride emulsion, HSL_FL)). Conditions: 10 μM sample concentration; % activity relative to non-inhibited sample (no compound); 30 min pre-incubation at 25° C., 120 min at 37° C.
T1 sequence (Q05469 1-1076): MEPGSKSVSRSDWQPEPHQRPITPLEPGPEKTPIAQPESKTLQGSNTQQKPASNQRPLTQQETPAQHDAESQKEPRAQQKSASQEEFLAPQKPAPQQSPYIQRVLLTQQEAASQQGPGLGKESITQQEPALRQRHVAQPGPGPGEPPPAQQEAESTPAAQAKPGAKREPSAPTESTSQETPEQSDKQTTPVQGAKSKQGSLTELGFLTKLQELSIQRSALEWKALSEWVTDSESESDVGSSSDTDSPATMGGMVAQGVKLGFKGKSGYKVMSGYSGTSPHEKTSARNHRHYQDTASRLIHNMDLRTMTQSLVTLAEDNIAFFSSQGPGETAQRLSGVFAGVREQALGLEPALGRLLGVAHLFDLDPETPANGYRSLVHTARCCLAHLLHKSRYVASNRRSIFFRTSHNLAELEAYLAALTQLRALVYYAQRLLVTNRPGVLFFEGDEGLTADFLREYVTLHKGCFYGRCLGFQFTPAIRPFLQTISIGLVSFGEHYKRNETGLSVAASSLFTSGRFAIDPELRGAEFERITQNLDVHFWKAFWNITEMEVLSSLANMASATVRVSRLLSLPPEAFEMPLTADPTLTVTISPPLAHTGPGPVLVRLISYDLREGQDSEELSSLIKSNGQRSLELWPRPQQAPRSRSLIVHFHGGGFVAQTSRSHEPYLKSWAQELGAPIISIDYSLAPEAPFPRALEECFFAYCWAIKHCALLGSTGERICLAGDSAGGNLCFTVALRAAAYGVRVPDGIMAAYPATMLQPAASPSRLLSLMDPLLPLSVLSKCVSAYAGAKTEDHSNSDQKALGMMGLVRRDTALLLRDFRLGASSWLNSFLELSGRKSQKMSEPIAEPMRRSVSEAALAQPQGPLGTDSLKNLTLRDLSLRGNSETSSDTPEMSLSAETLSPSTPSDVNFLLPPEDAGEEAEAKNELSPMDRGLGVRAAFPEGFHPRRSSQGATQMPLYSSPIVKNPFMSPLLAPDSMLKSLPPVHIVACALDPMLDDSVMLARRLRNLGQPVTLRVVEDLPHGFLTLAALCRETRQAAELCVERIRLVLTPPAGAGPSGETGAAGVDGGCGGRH
Format: biochemical
Description: Materials. The Hormone-sensitive lipase was provided by Dr. Cecilia Holm, from Lund University Sweden or produced and purified by Novo Nordisk (NN) using the reagents and protocols used by Dr. Holm. The substrates used are: ^3H-labeled triolein (TO) from Amersham, Buckinghamshire, U.K. cat No. TRA191; 5-20 Ci/mmol dissolved in toluene, triolein (Sigma, Cat. No. T-1740), fluorochrome-labeled triacylglyceride (cis-octadec-9-enoic acid 2-[12-(7-nitrobenzo[1,2,5]oxadiazol-4-ylamino)dodecanoyloxy]-1-cis-octadec-9-enoyloxymethyl-ethyl ester) prepared by Novo Nordisk (NN) by conventional methods, and 1,3-(di[^3H]-stearin), 2-(PEG-Biotin)glycerol prepared in collaboration with Amersham Pharmacia Biotech, UK and described in WO 01/073442. Phosphatidyl choline (PC) and phosphatidyl inositol (PI) are from Sigma (St Luis Mo. cat. Nos. P-3556 and P-5954 respectively). All other reagents are of commercial grade and obtained from various commercial sources.
3190.1: Assay for determination of percent inhibition of hormone sensitive lipase by compound at 10 μM sample concentration.
A lipid emulsion with fluorochrome-labeled triacylglyceride and phospholipid is used as substrate with a standard concentration of highly purified HSL (12 μg/mL initial concentration corresponding to 600 ng/mL final concentration). BSA is added as product acceptor. The transfer of the fluorochrome from the lipid phase to the water (BSA) phase changes the fluorescent properties of the fluorochrome. The changes can be monitored on a fluorimeter with an excitation wavelength of 450 nm and an emission wavelength of 545 nm.
Compound and HSL (20 μL compound, 10 μL enzyme and 70 μL PED-BSA buffer) is pre-incubated for 30 min at 25° C. before addition of substrate (100 μL). Amount of formed product is measured after 120 min incubation at 37° C.
Results are given as percent activity relative to a non-inhibited sample (no compound).

`CN(C(=O)Oc1ccc(CSc2ncc[nH]2)cc1)c1ccccc1` [Example 2, Methyl-phenyl-carbamic acid 4-(1H-imidazol-2-ylsulfanylmethyl)-phenyl ester] and `CN(C(=O)Oc1ccc(CCSc2ncc[nH]2)cc1)c1ccccc1` [Example 3, Methyl-phenyl-carbamic acid 4-[2-(1H-imidazol-2-ylsulfanyl)-ethyl]-phenyl ester] are the same in activity at 10 µM: 1% for the first, 1% for the second.

Going from `Cc1cccc(Cc2ccc(OC(=O)N(C)c3ccccc3)cc2)n1` [Example 4, Methyl-phenyl-carbamic acid 4-(6-methyl-pyridin-2-ylmethyl)-phenyl ester] to `CN(C(=O)Oc1ccc(CCOc2ccncc2)cc1)c1ccccc1` [Example 1, Methyl-phenyl-carbamic acid 4-[2-(pyridin-4-yloxy)-ethyl]-phenyl ester], the activity at 10 µM falls from 5% to 1%.
